Test results: ChEMBL document CHEMBL4680148, “Semisynthesis and biological evaluation of amidochelocardin derivatives as broad-spectrum antibiotics” (Eur J Med Chem, 2020)
Converted amounts (≈) assume the structure as drawn.

Experiments:
Staphylococcus aureus [1] = assay: Antibacterial activity against Staphylococcus aureus Newman assessed as minimum inhibitory concentration required for inhibition of bacterial growth measured after 18 hrs by microdilution method; assay type: functional
Escherichia coli [2] = assay: Antibacterial activity against Escherichia coli DSM-1116 assessed as minimum inhibitory concentration required for inhibition of bacterial growth measured after 18 hrs by microdilution method; assay type: functional
Escherichia coli [3] = assay: Antibacterial activity against Escherichia coli DSM-1116 assessed as minimum inhibitory concentration required for inhibition of bacterial growth in presence of outer membrane permeabilizer PMBN measured after 18 hrs by microdilution method; assay type: functional
Enterococcus faecium = assay: Antibacterial activity against Enterococcus faecium DSM-20477 assessed as minimum inhibitory concentration required for inhibition of bacterial growth measured after 18 hrs by microdilution method; assay type: functional
Pseudomonas aeruginosa [4] = assay: Antibacterial activity against Pseudomonas aeruginosa PA14 delta mexAB assessed as minimum inhibitory concentration required for inhibition of bacterial growth measured after 18 hrs by microdilution method; assay type: functional
Klebsiella pneumoniae [5] = assay: Antibacterial activity against Klebsiella pneumoniae DSM-30104 assessed as minimum inhibitory concentration required for inhibition of bacterial growth measured after 18 hrs by microdilution method; assay type: functional
Pseudomonas aeruginosa [6] = assay: Antibacterial activity against Pseudomonas aeruginosa PA14 assessed as minimum inhibitory concentration required for inhibition of bacterial growth measured after 18 hrs by microdilution method; assay type: functional
Staphylococcus aureus [7] = assay: Antibacterial activity against Staphylococcus aureus DSM-11822 assessed as minimum inhibitory concentration required for inhibition of bacterial growth measured after 18 hrs by microdilution method; assay type: functional
Pseudomonas aeruginosa [8] = assay: Antibacterial activity against Pseudomonas aeruginosa PA14 delta mexAB assessed as minimum inhibitory concentration required for inhibition of bacterial growth in presence of outer membrane permeabilizer PMBN measured after 18 hrs by microdilution method; assay type: functional
[9] = Stability of the compound in Escherichia coli assessed as intact compound by LC-MS analysis; assay type: ADME
[10] = Stability of the compound in Escherichia coli growth medium assessed as intact compound by LC-MS analysis; assay type: physicochemical
Klebsiella pneumoniae [11] = assay: Antibacterial activity against Klebsiella pneumoniae DSM-30104 assessed as minimum inhibitory concentration required for inhibition of bacterial growth in presence of outer membrane permeabilizer PMBN measured after 18 hrs by microdilution method; assay type: functional
Pseudomonas aeruginosa [12] = assay: Antibacterial activity against Pseudomonas aeruginosa DSM-1128 assessed as minimum inhibitory concentration required for inhibition of bacterial growth measured after 18 hrs by microdilution method; assay type: functional
Escherichia coli [13] = assay: Antibacterial activity against Escherichia coli assessed as minimum inhibitory concentration required for inhibition of bacterial growth in presence of outer membrane permeabilizer PMBN measured after 18 hrs by microdilution method; assay type: functional
Escherichia coli [14] = assay: Antibacterial activity against Escherichia coli assessed as minimum inhibitory concentration required for inhibition of bacterial growth measured after 18 hrs by microdilution method; assay type: functional
Staphylococcus aureus [15] = assay: Antibacterial activity against Staphylococcus aureus DSM-346 assessed as minimum inhibitory concentration required for inhibition of bacterial growth measured after 18 hrs by microdilution method; assay type: functional

C=CC(=O)N[C@H]1C(O)=C(C(N)=O)C(=O)[C@@]2(O)C(=O)c3c(c(C)c4ccc(C)c(O)c4c3O)C[C@@H]12
MIC (Staphylococcus aureus [1]): 4 µg/mL (≈ 8.58 µM) | MIC (Escherichia coli [2]): 32 µg/mL (≈ 68.6 µM) | MIC (Escherichia coli [3]): 2 µg/mL | MIC (Enterococcus faecium): 8 µg/mL (≈ 17.2 µM) | MIC (Pseudomonas aeruginosa [4]): > 64 µg/mL

Cc1cc([N+](=O)[O-])c2c(C)c3c(c(O)c2c1O)C(=O)[C@]1(O)C(=O)C(C(N)=O)=C(O)[C@H](N)[C@@H]1C3
MIC (Klebsiella pneumoniae [5]): > 64 µg/mL | MIC (Pseudomonas aeruginosa [6]): > 64 µg/mL | MIC (Enterococcus faecium): > 64 µg/mL | MIC (Staphylococcus aureus [7]): > 64 µg/mL

Cc1ccc2c(C)c3c(c(O)c2c1OC(=O)c1ccc(Br)cc1)C(=O)[C@]1(O)C(=O)C(C(N)=O)=C(O)[C@H](N)[C@@H]1C3
MIC (Staphylococcus aureus [1]): 4 µg/mL (≈ 6.72 µM) | MIC (Escherichia coli [2]): > 64 µg/mL | MIC (Pseudomonas aeruginosa [8]): > 64 µg/mL | MIC (Escherichia coli [3]): 64 µg/mL | MIC (Enterococcus faecium): 4 µg/mL (≈ 6.72 µM) | Stabilty [9]: Stable | Stabilty [10]: Stable

CC1=CC(=O)c2c(C)c3c(c(O)c2C1=O)C(=O)[C@]1(O)C(=O)C(C(N)=O)=C(O)[C@H](N)[C@@H]1C3
MIC (Staphylococcus aureus [1]): 32 µg/mL (≈ 75.1 µM) | MIC (Klebsiella pneumoniae [5]): > 64 µg/mL | MIC (Klebsiella pneumoniae [11]): 64 µg/mL | MIC (Pseudomonas aeruginosa [12]): > 64 µg/mL

COc1ccc(C(=O)N[C@H]2C(O)=C(C(N)=O)C(=O)[C@@]3(O)C(=O)c4c(c(C)c5ccc(C)c(O)c5c4O)C[C@@H]23)cc1
MIC (Klebsiella pneumoniae [5]): > 64 µg/mL | MIC (Pseudomonas aeruginosa [6]): > 64 µg/mL | MIC (Pseudomonas aeruginosa [4]): 64 µg/mL (≈ 117 µM) | MIC (Staphylococcus aureus [7]): 4 µg/mL (≈ 7.32 µM)

Cc1cc(F)c2c(C)c3c(c(O)c2c1O)C(=O)[C@]1(O)C(=O)C(C(N)=O)=C(O)[C@H](N)[C@@H]1C3
MIC (Klebsiella pneumoniae [5]): 8 µg/mL (≈ 18.6 µM) | MIC (Pseudomonas aeruginosa [6]): 8 µg/mL (≈ 18.6 µM) | MIC (Pseudomonas aeruginosa [4]): 4 µg/mL (≈ 9.29 µM) | MIC (Staphylococcus aureus [7]): 4 µg/mL (≈ 9.29 µM)

Cc1ccc2c(C)c3c(c(O)c2c1O)C(=O)[C@]1(O)C(=O)C(C(N)=O)=C(O)[C@H](NS(C)(=O)=O)[C@@H]1C3
MIC (Klebsiella pneumoniae [5]): > 64 µg/mL | MIC (Pseudomonas aeruginosa [6]): > 64 µg/mL | MIC (Enterococcus faecium): 32 µg/mL (≈ 65.2 µM) | MIC (Staphylococcus aureus [7]): > 64 µg/mL

Cc1ccc2c(C)c3c(c(O)c2c1O)C(=O)[C@]1(O)C(=O)C(C(N)=O)=C(O)[C@H](N2C(=O)c4ccccc4C2=O)[C@@H]1C3
MIC (Klebsiella pneumoniae [5]): > 64 µg/mL | MIC (Pseudomonas aeruginosa [6]): > 64 µg/mL | MIC (Escherichia coli [13]): 0.5 µg/mL | MIC (Escherichia coli [14]): > 64 µg/mL | MIC (Pseudomonas aeruginosa [4]): > 64 µg/mL | MIC (Staphylococcus aureus [7]): 0.125 µg/mL (≈ 0.23 µM)

Cc1ccc2c(C)c3c(c(O)c2c1O)C(=O)[C@]1(O)C(=O)C(C(N)=O)=C(O)[C@H](N)[C@@H]1C3.O=C([O-])CC(O)(CC(=O)[O-])C(=O)[O-].[Na+].[Na+].[Na+]
MIC (Escherichia coli [2]): 0.5 µg/mL | MIC (Klebsiella pneumoniae [5]): 2 µg/mL | MIC (Pseudomonas aeruginosa [6]): 16 µg/mL | MIC (Enterococcus faecium): 4 µg/mL | MIC (Pseudomonas aeruginosa [4]): 0.5 µg/mL | Stabilty [9]: Unstable | Stabilty [10]: Unstable | MIC (Staphylococcus aureus [7]): 8 µg/mL

Cc1cc(Br)c2c(C)c3c(c(O)c2c1O)C(=O)[C@]1(O)C(=O)C(C(N)=O)=C(O)[C@H](N)[C@@H]1C3
MIC (Staphylococcus aureus [1]): 8 µg/mL (≈ 16.3 µM) | MIC (Klebsiella pneumoniae [5]): 8 µg/mL (≈ 16.3 µM) | MIC (Klebsiella pneumoniae [11]): 4 µg/mL | MIC (Pseudomonas aeruginosa [12]): 32 µg/mL (≈ 65.1 µM)

Cc1ccc2c(C)c3c(c(O)c2c1O)C(=O)[C@]1(O)C(=O)C(C(N)=O)=C(O)[C@H](N(C)C)[C@@H]1C3
MIC (Klebsiella pneumoniae [5]): > 64 µg/mL | MIC (Pseudomonas aeruginosa [6]): > 64 µg/mL | MIC (Enterococcus faecium): > 64 µg/mL | MIC (Staphylococcus aureus [15]): > 64 µg/mL

CN[C@H]1C(O)=C(C(N)=O)C(=O)[C@@]2(O)C(=O)c3c(c(C)c4ccc(C)c(O)c4c3O)C[C@@H]12
MIC (Klebsiella pneumoniae [5]): > 64 µg/mL | MIC (Pseudomonas aeruginosa [6]): > 64 µg/mL | MIC (Enterococcus faecium): > 64 µg/mL | MIC (Staphylococcus aureus [15]): > 64 µg/mL

Cc1ccc2c(C)c3c(c4c2c1O[Si](C(C)(C)C)(C(C)(C)C)O4)C(=O)[C@]1(O)C(=O)C(C(N)=O)=C(O)[C@H](N)[C@@H]1C3
MIC (Klebsiella pneumoniae [5]): > 64 µg/mL | MIC (Pseudomonas aeruginosa [6]): > 64 µg/mL | MIC (Escherichia coli [13]): 8 µg/mL | MIC (Escherichia coli [14]): 64 µg/mL (≈ 116 µM) | MIC (Staphylococcus aureus [7]): 1 µg/mL (≈ 1.81 µM)

CC(=O)C1=C(O)[C@H](N)[C@@H]2Cc3c(c(O)c4c(O)c(C)ccc4c3C)C(=O)[C@]2(O)C1=O.O=C([O-])CC(O)(CC(=O)[O-])C(=O)[O-].[Na+].[Na+].[Na+]
MIC (Escherichia coli [2]): 2 µg/mL | MIC (Klebsiella pneumoniae [5]): 2 µg/mL | MIC (Pseudomonas aeruginosa [6]): 64 µg/mL | MIC (Enterococcus faecium): 8 µg/mL | MIC (Pseudomonas aeruginosa [4]): 4 µg/mL | MIC (Staphylococcus aureus [7]): 8 µg/mL

CC(=O)Oc1c(C)ccc2c(C)c3c(c(O)c12)C(=O)[C@]1(O)C(=O)C(C(N)=O)=C(O)[C@H](N)[C@@H]1C3
MIC (Staphylococcus aureus [1]): 16 µg/mL (≈ 35.2 µM) | MIC (Escherichia coli [2]): 8 µg/mL (≈ 17.6 µM) | MIC (Pseudomonas aeruginosa [8]): 1 µg/mL | MIC (Enterococcus faecium): 16 µg/mL (≈ 35.2 µM) | Stabilty [9]: Stable | Stabilty [10]: Stable

Cc1ccc2c(C)c3c(c(O)c2c1O)C(=O)[C@]1(O)C(=O)C(C(N)=O)=C(O)[C@H](N2C(=O)C=CC2=O)[C@@H]1C3
MIC (Klebsiella pneumoniae [5]): 64 µg/mL (≈ 130 µM) | MIC (Pseudomonas aeruginosa [6]): > 64 µg/mL | MIC (Escherichia coli [13]): 8 µg/mL | MIC (Escherichia coli [14]): > 64 µg/mL | MIC (Pseudomonas aeruginosa [4]): > 64 µg/mL | MIC (Staphylococcus aureus [7]): 2 µg/mL (≈ 4.06 µM)

Cc1ccc2c(C)c3c(c(O)c2c1O)C(=O)[C@]1(O)C(=O)C(C(N)=O)=C(O)[C@H](NC(=O)CN2CCN(C)CC2)[C@@H]1C3
MIC (Staphylococcus aureus [1]): > 64 µg/mL | MIC (Escherichia coli [2]): 54 µg/mL (≈ 97.7 µM) | MIC (Escherichia coli [3]): 32 µg/mL | MIC (Enterococcus faecium): > 64 µg/mL | MIC (Pseudomonas aeruginosa [4]): 32 µg/mL (≈ 57.9 µM)

CC(=O)N[C@H]1C(O)=C(C(N)=O)C(=O)[C@@]2(O)C(=O)c3c(c(C)c4ccc(C)c(O)c4c3O)C[C@@H]12
MIC (Klebsiella pneumoniae [5]): > 64 µg/mL | MIC (Pseudomonas aeruginosa [6]): > 64 µg/mL | MIC (Enterococcus faecium): 32 µg/mL (≈ 70.4 µM) | MIC (Staphylococcus aureus [7]): > 64 µg/mL

Cc1ccc2c(C)c3c(c(O)c2c1O)C(=O)[C@]1(O)C(=O)C(C(N)=O)=C(O)[C@H](NC(=O)OCc2ccccc2)[C@@H]1C3
MIC (Klebsiella pneumoniae [5]): > 64 µg/mL | MIC (Pseudomonas aeruginosa [6]): > 64 µg/mL | MIC (Enterococcus faecium): 0.25 µg/mL (≈ 0.457 µM) | MIC (Staphylococcus aureus [7]): > 64 µg/mL

COc1ccc(-c2cc(C)c(O)c3c(O)c4c(c(C)c23)C[C@H]2[C@@H](N)C(O)=C(C(N)=O)C(=O)[C@@]2(O)C4=O)cc1
MIC (Klebsiella pneumoniae [5]): > 64 µg/mL | MIC (Pseudomonas aeruginosa [6]): > 64 µg/mL | MIC (Escherichia coli [13]): 2 µg/mL | MIC (Escherichia coli [14]): 32 µg/mL (≈ 61.7 µM) | MIC (Staphylococcus aureus [7]): 1 µg/mL (≈ 1.93 µM)

Cc1cc(Cl)c2c(C)c3c(c(O)c2c1O)C(=O)[C@]1(O)C(=O)C(C(N)=O)=C(O)[C@H](N)[C@@H]1C3
MIC (Staphylococcus aureus [1]): 4 µg/mL (≈ 8.95 µM) | MIC (Klebsiella pneumoniae [5]): 8 µg/mL (≈ 17.9 µM) | MIC (Klebsiella pneumoniae [11]): 8 µg/mL | MIC (Pseudomonas aeruginosa [12]): 16 µg/mL (≈ 35.8 µM)

CCOC(=O)N[C@H]1C(O)=C(C(N)=O)C(=O)[C@@]2(O)C(=O)c3c(c(C)c4ccc(C)c(O)c4c3O)C[C@@H]12
MIC (Klebsiella pneumoniae [5]): 16 µg/mL (≈ 33 µM) | MIC (Pseudomonas aeruginosa [6]): > 64 µg/mL | MIC (Pseudomonas aeruginosa [4]): 64 µg/mL (≈ 132 µM) | MIC (Staphylococcus aureus [7]): 2 µg/mL (≈ 4.13 µM)

Cc1ccc2c(C)c3c(c(O)c2c1O)C(=O)[C@]1(O)C(=O)C(C(N)=O)=C(O)[C@H](NC(=O)CCN)[C@@H]1C3
MIC (Staphylococcus aureus [1]): 64 µg/mL (≈ 132 µM) | MIC (Escherichia coli [2]): 16 µg/mL (≈ 33.1 µM) | MIC (Escherichia coli [3]): 8 µg/mL | MIC (Enterococcus faecium): > 64 µg/mL | MIC (Pseudomonas aeruginosa [4]): 32 µg/mL (≈ 66.2 µM)

Cc1cc(C)c(-c2cc(C)c(O)c3c(O)c4c(c(C)c23)C[C@H]2[C@@H](N)C(O)=C(C(N)=O)C(=O)[C@@]2(O)C4=O)c(C)c1
MIC (Klebsiella pneumoniae [5]): 32 µg/mL (≈ 60.3 µM) | MIC (Pseudomonas aeruginosa [6]): > 64 µg/mL | MIC (Escherichia coli [13]): 8 µg/mL | MIC (Escherichia coli [14]): > 64 µg/mL | MIC (Staphylococcus aureus [7]): 0.5 µg/mL (≈ 0.942 µM)
